Here are results for twelve compounds from US12226405B2, “Compounds and compositions for inhibiting the activity of HIF2-alpha and their methods of use” (Novartis AG, priority 2020, dated 2025).

Experiment [1] relates to HIF2α-regulated expression of the endogenous target gene hEGLN3 in 786-O cells. The experiment can be described thus: Cellular iScript assay for HIF2α (quantitative RT-PCR of hEGLN3). In kind it is cell-based, human. The settings on record: Homo sapiens, 786-0, 48 hours incubation. On the procedure: (§1) Stock solutions of compounds were prepared at a concentration of 10 mM in DMSO and stored at 4° C. Where necessary to afford a full dose-response curve, the stock solutions were pre-diluted in DMSO to 1,000-fold the desired reduced start concentration. On the day after cell seeding, eleven 2-fold serial dilutions of each compound were dispensed directly into the cell assay plates using either HP 300D non-contact Digital Dispenser (TECAN) or a ATS100 acoustic dispenser (EDC Biosystems).
Compound-mediated modulation of the HIF2α-regulated expression of the endogenous target gene hEGLN3 (OMIM: 606426), as well as beta-actin (OMIM: 102630) as a house-keeping control, was assess in 786-O cells (RRID CVCL_1051) using a quantitative RT-PCR approach. In short, 786-O cells were maintained in growth medium composed of DMEM (GIBCO #11995-065), 2 mM L-Glutamine (BioConcept #5-10K50-H), 1× Penicillin/Streptomycin (BioConcept #4-01F00-H), 10% fetal calf serum (Gibco #A31608-01), 1 mM Sodium pyruvate (BioConcept #5-60F00-H). Cells were seeded at 1,000 cells/20 μL/well into white-wall, clear-bottom 384-well plates (Greiner #781098) and incubated over night at 37° C. prior to addition of serial compound dilutions as described above. Following incubation for 48 hours at 37° C., medium supernatant was discarded and the plate blotted dry by inverting on a tissue. The same procedure was repeated following one wash with 20 μL phosphate-buffered saline. Following addition of 25 μL/well iScript sample preparation reagent (BioRad #170-8899) using a 16-channel Matrix pipette, the plate was incubated for 2 min at room temperature. 20 μL lysate supernatant was then removed and transferred to a new 384 well plate (Costar #3656) and diluted 1:3 by adding 5 μL of the lysate to 10 μL H2O using a Bravo liquid handler (Agilent). 2 μL of the diluted lysate was added to the 8 μL of a mastermix containing 5 μL iTaq Universal Probes One-step kit (BioRad #172-5141), 0.25 μL iScript reverse transcription supermix (BioRad #1708840), 0.25 μL 40×HEX-ZEN-labeled TaqMan probe for beta-actin (IDT #Hs.PT.39a.22214847: Probe 5′ HEX-TCA TCC ATG/ZEN/GTG AGC TGG CGG-3′ (SEQ ID NO: 2) Iowa Black FQ, Primer 1: ACA GAG CCT CGC CTT TG (SEQ ID NO: 3); Primer 2: CCT TGC ACA TGC CGG (SEQ ID NO: 4) AG), 0.25 μL, 40×FAM-ZEN-labeled TaqMan probe for hEGLN3 (IDT #Hs.PT.58.189348: Probe 5′ 6-FAM-TTT GGC TTC/ZEN/TGC CCT TTC TTC AGC-3′ (SEQ ID NO: 5) Iowa Black FQ, Primer 1: CACGGTCAGTCTTCAGTGAG (SEQ ID NO: 6); Primer 2: CGCAACCAGATATGCTATGACT (SEQ ID NO: 7)), 2.25 μL RNase-free water, prelaid in a 384 well plate (ABI #4309849) using a 16-channel Matrix pipette. The plate was sealed with a PCR-compatible optical film (MicroAmp, ABI #4360954) and centrifuged (1500 rpm, 5 min, +4° C.) to collect all reagents in the bottom of the well and to remove bubbles. The plate content was amplified on a 7900HT thermal cycler (ABI) using the following conditions: Step 1: 50° C. for 10 min, Step 2: 95° C. for 3 min, Step 3 (40×): 95° C. for 15 s, 60° C. for 1 min. ROX (reaction volume 10 μL) was used as a passive reference. Data were collected with manual adjustment of the Ct threshold (beta-actin: 0.046, hEGLN3: 0.06) and were analyzed using the 2^(−ΔΔCt) method. Thus, for each sample, the following values were calculated: 2^(−Ct)a for beta-actin, 2^(−Ct)e for EGLN3, and 2^(−ΔCt) calculated as (2^(−Ct)e/2^(−Ct)a). The mean 2^(−ΔCt) as well as the corresponding standard deviation was calculated for each sample. Taking the DMSO-treated sample as a reference, the 2^(−ΔΔCt) for each sample was calculated as follows: 2^(−ΔΔCt)=2^(−ΔCt)sample/(2^(−ΔCt)DMSO). After calculating differential expression as 2^(−ΔΔCt) for each sample, it was then expressed as a percentage (×100) to obtain a dose-response curve in % of DMSO control and IC50s were calculated using a four-parametric fit model.

Experiment [2] has as its system HIF2α-dependent transcription in 786-O-HRE-Luc cells. The experiment can be described thus: In vitro cellular hypoxia response element (HRE) reporter gene assay (RGA) for HIF2α. The settings on record: Homo sapiens, 24 hours incubation. Format: cell-based, human. On the procedure:
as §1
The ability of compounds to inhibit HIF2α- and HIF1α-dependent transcription was assessed in 786-O-HRE-Luc and RCC4-HRE-Luc cells, respectively. The putative unselective inhibition of firefly luciferase activity or expression was assessed in 786-O-UB6-Luc and RCC4-UB6-Luc cells, respectively. The reporter lines were generated as follows: 786-O (RRID: CVCL_1051) and RCC4 (RRID: CVCL_0498) clear cell renal carcinoma cell lines were obtained from ATCC and Celeste Simon (University of Pennsylvania), respectively. Either cell line was transduced with a lentiviral vector in which the expression of a PEST-destabilized version of firefly-luciferase is under the control of either a minimal promoter coupled to four copies of a minimal hypoxia response element (HRE) sequence (pLenti 4×HRE Luc PEST), or a promoter from the house-keeping UBC gene (pLenti UB6 Luc PEST). In short, for the construction of the pLenti 4×HRE Luc PEST vector, 4×HRE DNA oligonucleotides were synthesized, annealed and cloned into pGL4.27 plasmid vector (Promega) predigested with NheI and HindIII restriction enzymes. The sequence of the two DNA oligonucleotides was as follows: NheI 4×HRE HindIII FWD: […] (SEQ ID NO: 8); NheI 4×HRE HindIII REV […] (SEQ ID NO: 9). The 4×HRE Luc PEST fragment was then PCRed from this plasmid with restriction enzyme sites NheI and XhoI at the two ends, and inserted into pLenti6/BLOCK iT DEST (Thermo Fisher Scientific) predigested with NheI and XhoI restriction enzymes. For the construction of the pLenti UB6 Luc PEST vector, the Luc PEST sequence was PCRed from pGL4.27 (Promega) using EcoRV and XhoI restriction enzymes at the two ends, and inserted into pLenti6/UBC/V5/DEST (Thermo Fisher Scientific) predigested with the same enzymes. 786-O and RCC4 cells (300,000 per well of a 6 well plate) were infected in the presence of 10 μg/ml polybrene with lentivirus harvested two days after transfection of HEK293-FT (ThermoFisher Scientific #R70007) cells (80% confluent in a 100 cm^2 dish) with a mix of 1.5 ml OptiMEM (ThermoFisher Scientific #31985062) containing 3 μg of the desired plasmids and 9 μl of ViralPower Packaging mix (ThermoFisher Scientific #K497500), and 1.5 ml OptiMEM containing 36 μl Lipofectamine 2000 (ThermoFisher Scientific #11668019). Successfully infected cells were selected using blasticidin (Gibco #A11139-03) at a final concentration of 5 μg/ml. The resulting stable cell lines were named 786-O pLenti 4×HRE Luc PEST (short: 786-O-HRE-Luc), 786-O pLenti UB6 Luc PEST (short: 786-O-UB6-Luc), RCC4 pLenti 4×HRE Luc PEST (short: RCC4-HRE-Luc) and RCC4 pLenti UB6 Luc PEST (short: RCC4-UB6-Luc). All 4 cell lines were maintained in growth medium composed of DMEM (GIBCO #11995-065), 2 mM L-Glutamine (BioConcept #5-10K50-H), 10% fetal calf serum (Gibco #A31608-01), 1× Penicillin/Streptomycin (BioConcept #4-01F00-H), 1 mM Sodium pyruvate (BioConcept #5-60F00-H) and 5 μg/ml blasticidin (Gibco #A11139-03) at 37° C. in a humidified 5% CO2 incubator.
For the reporter gene assay, the individual cell lines were seeded at 2,500 cells/20 μL/well into white-wall, clear-bottom 384-well plates (Greiner #781098) and incubated over night at 37° C. prior to addition of serial compound dilutions as described above. […]
(In general: Reporter assays use an easily measured gene product as a stand-in for the process of interest.)

Experiment [3] has as its target HIF2α PAS-B domain (236-350, biotinylated on the N-terminus) (Homo sapiens (Human), UniProt Q99814).
Method: The assay buffer contained 50 mM Tris-HCl pH7 (Sigma), 20 mM NaCl (Fluka), 0.02% BSA (Sigma), 0.005% Triton X-100 (Pierce) and 1 mM DTT (Fluka). After a 30 min incubation period, 5 μL Streptavidin PVT SPA Beads (Perkin Elmer) at 1.2 mg/mL, diluted in the buffer, were added.

Chain of HIF2α PAS-B domain (236-350, biotinylated on the N-terminus) (Q99814 236-350): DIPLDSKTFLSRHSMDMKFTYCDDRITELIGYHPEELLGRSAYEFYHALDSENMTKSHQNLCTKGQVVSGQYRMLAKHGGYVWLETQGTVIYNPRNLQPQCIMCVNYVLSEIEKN

In general, IC50 refers to the midpoint of a concentration-inhibition curve. Read a high IC50 as lower potency. Turning to `COc1ccc2c(c1F)OCC[C@@]21CN2C=C(C(F)(F)F)C=C(OC(F)F)C2=N1` [Example 103, (S)-8′-(difluoromethoxy)-8-fluoro-7-methoxy-6′-(trifluoromethyl)-3′H-spiro[chromane-4,2′-imidazo[1,2-a]pyridine]], the IC50 was determined as 109 nM in experiment [1], 417 nM in experiment [2] and 42 nM in experiment [3]. Take `FC(F)OC1=CC(C(F)(F)F)=CN2C[C@@]3(CCc4ccccc43)N=C12` [Example 75, (S)-8-(difluoromethoxy)-6-(trifluoromethyl)-2′,3′-dihydro-3H-spiro[imidazo[1,2-a]pyridine-2,1′-indene]]: the IC50 amounted to 183 nM in experiment [1] and 76 nM in experiment [3]. With `N#CC1=CN2C[C@@]3(CCSc4c3ccc(Br)c4F)N=C2C(OC(F)F)=C1` [Example 110, (S)-7′-bromo-8-(difluoromethoxy)-8′-fluoro-3H-spiro[imidazo[1,2-a]pyridine-2,4′-thiochromane]-6-carbonitrile], inhibition in experiment [1] was half-maximal at 35 nM (IC50). Turning to `FC(F)(F)C1=CN2C[C@@]3(CCc4c3ccc(Br)c4Cl)N=C2C(Cl)=C1` [Example 71, (S)-5′-bromo-4′,8-dichloro-6-(trifluoromethyl)-2′,3′-dihydro-3H-spiro[imidazo[1,2-a]pyridine-2,1′-indene]], the concentration for half-maximal inhibition (IC50) was found to be 181 nM in experiment [1] and 20 nM in experiment [3]. For the compound `FC(F)OC1=CC(C(F)(F)F)=CN2CC3(CCCc4c(C(F)(F)F)cccc43)N=C12` (racemic) [Example 87, rac-8-(difluoromethoxy)-5′,6-bis(trifluoromethyl)-3′,4′-dihydro-2′H,3H-spiro[imidazo[1,2-a]pyridine-2,1′-naphthalene]], the IC50 in experiment [1] worked out at 159 nM. In the case of `Fc1ccc2c(c1)CSC[C@@]21CN2C=C(C(F)(F)F)C=C(OC(F)F)C2=N1` [Example 116, (S)-8-(difluoromethoxy)-7′-fluoro-6-(trifluoromethyl)-3H-spiro[imidazo[1,2-a]pyridine-2,4′-isothiochromane]], the 50% inhibitory concentration (IC50) amounted to 46 nM in experiment [1] and 6 nM in experiment [3].

With `Fc1ccc2c(c1F)SCC[C@@]21CN2C=C(C(F)(F)F)C=C(OC(F)F)C2=N1` [Example 113, (S)-8-(difluoromethoxy)-7′,8′-difluoro-6-(trifluoromethyl)-3H-spiro[imidazo[1,2-a]pyridine-2,4′-thiochromane]], the half-maximal inhibitory concentration (IC50) stood at 32 nM in experiment [1] and 4 nM in experiment [3]. On to `Fc1cccc2c1CCC[C@@]21CN2C=C(C(F)(F)F)C=C(Cl)C2=N1` [Example 79, (S)-8-chloro-5′-fluoro-6-(trifluoromethyl)-3′,4′-dihydro-2′H,3H-spiro[imidazo[1,2-a]pyridine-2,1′-naphthalene]], for which the half-maximal inhibitory concentration (IC50) in experiment [1] came to 70 nM; in experiment [3] it was 5 nM. Take `Fc1cccc2c1CSC[C@@]21CN2C=C(C(F)(F)F)C=C(OC(F)F)C2=N1` [Example 115, (S)-8-(difluoromethoxy)-8′-fluoro-6-(trifluoromethyl)-3H-spiro[imidazo[1,2-a]pyridine-2,4′-isothiochromane]]: the IC50 in experiment [1] was 30 nM; in experiment [3] it was ≤ 3 nM. On to `O=C1CC[C@@]2(CN3C=C(C(F)(F)F)C=C(OC(F)F)C3=N2)c2ccc(Br)cc21` [Example 90, (S)-6′-bromo-8-(difluoromethoxy)-6-(trifluoromethyl)-2′,3′-dihydro-3H,4′H-spiro[imidazo[1,2-a]pyridine-2,1′-naphthalen]-4′-one], for which the 50% inhibitory concentration (IC50) in experiment [1] came out at 162 nM; in experiment [3], 10 nM. As to `FC(F)OC1=CC(C(F)(F)F)=CN2C[C@@]3(CCc4cc(Br)ccc43)N=C12` [Example 72, (5)-5′-bromo-8-(difluoromethoxy)-6-(trifluoromethyl)-2′,3′-dihydro-3H-spiro[imidazo[1,2-a]pyridine-2,1′-indene]], the values for the IC50 in experiment [1] and in experiment [3] were 84 nM and 7 nM, respectively. Regarding `FC(F)OC1=CC(C(F)(F)F)=CN2C[C@@]3(CCc4cc(C(F)(F)F)ccc43)N=C12` [Example 6, (S)-8-(difluoromethoxy)-5′,6-bis(trifluoromethyl)-2′,3′-dihydro-3H-spiro[imidazo[1,2-a]pyridine-2,1′-indene]], the results for the IC50 in experiment [1] and in experiment [2] were 84 nM and 250 nM, respectively.
